Results published in publication PMC10223284, “Category-Based Toxicokinetic Evaluations of Data-Poor Per- and Polyfluoroalkyl Substances (PFAS) using Gas Chromatography Coupled with Mass Spectrometry” (Toxics, 2023).
Where “and” joins values, the source holds several entries; their conditions need not be identical. Identical values can stand only once. Like-named read-outs stand apart in the source and are kept apart here.

How the values were obtained:
[1] = In vitro-in vivo extrapolation (IVIVE) to Css and administered equivalent dose (AED); parameters: species or system human; settings: for Clhep: IVIVE, hepatocyte Clint scaled to whole-liver clearance; for AED: administered equivalent dose from LOEC and Css; for Fub: fub=fup/(B:P), Fub set to 1 if needed; for CLint: scaled with HPGL 110 mill cells/g, Vl 1596 g
Description: Using the experimentally generated PPB (fraction unbound in plasma, fup) and hepatic Clint data, IVIVE was performed as previously described to calculate human steady-state plasma concentrations (Css). Briefly, experimental measures of fup are adjusted using blood:plasma partitioning information to estimate the fraction unbound in blood (fub). Experimental hepatocyte Clint data are scaled up to represent whole-liver clearance (L/h). […] Once estimated, these Css values are considered in conjunction with published in vitro bioactivity concentrations (i.e., lowest-observed effective concentrations, or LOECs) to calculate AEDs (Table 2). See Table S10 for all relevant IVIVE inputs, scalars, calculations, and outputs.

[2] = test system: pooled human cryopreserved primary hepatocyte suspensions; test: Hepatic metabolic stability (hepatocyte clearance) assay, substrate depletion; assay type: in vitro ADME; settings: for Concentration (nM), Time 0 min / Concentration (nM), Time 15 min / Concentration (nM), Time 30 min / Concentration (nM), Time 60 min / Concentration (nM), Time 120 min: hepatocyte incubation, Rep 1-3, start conc 1000 nM; for Linear Regression Results, Best-Fit Values, Slope: hepatocyte time course
Source text: (§1) William’s Medium E (Gibco A1217601), dexamethasone, and cell maintenance cocktail B (Gibco CM4000) were obtained from Thermo Fisher Scientific (Waltham, MA, USA). Hepatosure OptiThaw media (P/N K8000; Lot No. 18–1–0322) was obtained from Sekisui Xenotech (Kansas City, KS, USA). Trypan blue solution (P/N 1450021) was obtained from Bio-Rad (Hercules, CA, USA). Pooled human cryopreserved primary hepatocyte suspensions were obtained from BioIVT (Westbury, NY, USA) and produced using nontransplantable tissue. The human 50-donor pool (mixed gender; Cat X0080005; Lot MYC), selected from BioIVT’s commercially available, prepooled lots, was selected following review of vendor-generated metabolic characterization information. Pooled, mixed-sex human plasma from de-identified donors was obtained from a commercial vendor that operates a U.S. Food and Drug Administration-licensed and inspected donor center (BioIVT bioivt.com (accessed 12 May 2023). Donors comprised five males and five females and ranged from 20 to 50 years of age. Plasma collected using anticoagulant K2EDTA was sterile-filtered ([…]) and stored at <−70 °C until use.
(§2) The hepatic metabolic stability assay measures the loss of a parent compound over time in a substrate-depletion approach. Briefly, hepatocyte suspensions, after a viability assessment, were diluted in complete William’s medium E (containing dexamethasone and cell maintenance cocktail B) prior to addition to 96-well polypropylene plates containing an equal volume of media spiked with the test compound (1 μM assay concentration; assay cell density = 50,000 cells/100 μL) and maintained at 37 °C with shaking. At each time point, relevant plates were crashed with an equal volume of ice-cold acetonitrile, centrifuged, and supernatant transferred to a new plate prior to storage at <−70 °C until quantitative analysis. Controls, run in parallel, included cell-free (i.e., media only) and metabolically inactivated hepatocytes to evaluate abiotic chemical stability in the aqueous media matrix with and without cellular protein. In preliminary runs, these controls were run at T0 and T240 only. If significant instability was noted, the hepatocyte clearance assay was rerun, including cell-free samples at each time point and metabolically inactivated hepatocytes at selected time points.
(§3) To process samples for quantitative analysis, samples were thawed and mixed. An aliquot of sample was removed and diluted in acetonitrile (1 part sample plus 9 parts acetonitrile) containing the relevant ISs selected for the PFAS being analyzed (See Table S2). The target at instrument concentration of each IS was 10 pg/μL.
(§4) The curves were generated using concentration/response ratios from the target analyte and IS, with either linear or quadratic regression models. The model and weighting, if necessary, were chosen to most accurately reflect the response of each compound and was evaluated by recalculating the individual calibration points using the curve. An acceptable model reflected an accuracy of ±30% of the theoretical value.
(§5) Hepatic metabolic clearance data were plotted in semi-log format (ln concentration vs. time) with three replicates at each time point, as previously described. […] The equations described below are used to calculate the chemical half-life (T½) and intrinsic in vitro clearance (Clin vitro) with units of μL/(min × million hepatocytes). In Equation (3), 2000 is a scalar used to adjust the assay cell number up to be consistent with units of 1 million cells in the Clint equation.
(§6) Negative controls, including media only and metabolically inactivated hepatocyte controls, were included to monitor abiotic loss (i.e., background clearance) during the assay. Where significant compound loss occurred using the analysis described above, background clearance rates were calculated and used to background-adjust hepatic metabolic clearance rates. […]

[3] = as above; assay type: in vitro ADME, human; settings: both sexes, human; for half-life at 1 μM: read-out: Linear Regression Results, Best-Fit Values, Half Life
Source text: as §1, §2, §3, §4, §5, §6

[4] = in vitro; settings: both, human, plasma
[5] = Abiotic loss in negative controls of the hepatocyte clearance assay (cell-free media, metabolically inactivated hepatocytes); assay type: in vitro ADME; settings: for half-life at 1 μM / HT BkgdCl, Slope / No Cells BkgdCl, Slope: 0 vs 240 min; for Hep_Stab_Fail: flag for stability failure in hepatocyte clearance assay controls (1 or Fst = fail, 0 = pass)
Summary of the method: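 Test compound at 1 μM incubated at 37 °C with shaking in complete William's medium E, either cell-free or with metabolically inactivated hepatocytes, then quenched with ice-cold acetonitrile for quantitative analysis.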

[6] = test system: human plasma; test: Chemical stability in plasma over the UC assay time course (T5hr/T1hr); settings: for PPB_Stab_Fail: flag for stability failure in the plasma protein binding assay (1 = fail, 0 = pass); for Mean Stability (T5hr/T1hr): mean over all UC runs and replicates, human plasma; for Fstable.Med: median fraction stable in plasma, UC assay Level4; for Stability (T5hr/ T1hr), Run-specific Avg: run-specific average
Description: Three replicates were run per experiment, with 4NT included as a reference compound in each to evaluate assay performance. All PFAS and 4NT, prepared at a 3 mM working stock, were added to human plasma to achieve a final, thoroughly mixed assay concentration of 10 μM, incubated at 37 °C for 1 h with shaking. […] After UC, the aqueous fraction (AF; i.e., supernatant devoid of plasma proteins/lipoproteins/fatty acids) was collected and transferred to a new tube. The second aliquot maintained at 37 °C was collected (T5hr). At the relevant time points, each volume of sample was combined with 3 volumes of vigorously mixed ice-cold acetonitrile with the labeled IS and stored for 10 min at −20 °C prior to centrifugation at 12,000× g for 10 min at 4 °C. The supernatant was collected and stored at <−70 °C until quantitative analysis. […] Furthermore, chemical stability in plasma over the assay time course was assessed using the T1hr and T5hr samples.
Percent chemical remaining at the end of the UC assay (T5hr/T1hr) was used to remove unstable chemicals from further evaluation.

[7] = test system: human plasma; test: Ultracentrifugation (UC) plasma protein binding assay, fraction unbound in plasma (fup); settings: for fup: human plasma, 10 μM, ultracentrifugation, 37 °C; for Fup.Med: median fraction unbound in plasma; for Fup.Med / Fup.point: UC assay Level4; for Fup.point: point estimate of fraction unbound in plasma
[8] = test system: human primary cells; settings: cited from earlier work
[9] = Assuming 1 mg/kg/day dose rate, BW 70 kg
[10] = human steady-state plasma concentration, assuming 1 mg/kg/day dosage
[11] = hepatocytes, background-subtracted, read-out: Bkgd-Sub Clearance (µL/min/106 hepatocytes)
[12] = hepatocytes, pooled human hepatocyte suspensions, 1 μM, read-out: In Vitro Clint
[13] = hepatocytes, unadjusted hepatocyte intrinsic clearance, read-out: Unadj in vitro Clint
[14] = hepatocytes, hepatocyte time course, NS = slope not significant, read-out: Linear Regression Results, Best-Fit Values, Clearance
[15] = hepatocytes, hepatocyte time course, NS = slope not significant
[16] = Fraction Unbound (fu), Run-specific Avg, run-specific average
[17] = Fraction Unbound (fu), replicate A, individual replicate A of the UC run dated in c8
[18] = Fraction Unbound (fu), replicate B, individual replicate B of the UC run dated in c8
[19] = Fraction Unbound (fu), replicate C, individual replicate C of the UC run dated in c8
[20] = Mean fu, fraction unbound in human plasma, ultracentrifugation, some values based on eLOQ
[21] = both sexes, human, heat treated hepatocytes control, read-out: HT BkgdCl, Half Life
[22] = buffer, no cells control, read-out: No Cells BkgdCl, Half Life
[23] = heat treated hepatocytes control
[24] = BioSeek lowest-observed effect concentration used for AED
[25] = minimum lowest-observed effect concentration, BioSeek platform
[26] = heat treated hepatocytes, Rep 1-3

With `NC(=O)C(F)(F)C(F)(F)C(F)(F)C(F)(F)F` [Nonafluoropentanamide] the Css [1, 9] was 0.06 mg/L and 0.23 uM, the Clhep [1] was 47.130 L/h and the AED [1] was 31.0338 mg/kg/day. For the same molecule, the Fub [1] was 0.3609, the Css [1, 10] was 0.23 µM and the CLint [1] was 4569125 µL/min. For the same molecule, the “Concentration (nM), Time 0 min” value [2] was 390.162 nM and 651.917 nM and 499.488 nM, the “Concentration (nM), Time 15 min” value [2] was 214.882 nM and 126.475 nM and 193.144 nM and the “Concentration (nM), Time 30 min” value [2] was 192.232 nM and 153.873 nM and 192.317 nM. For the same molecule, the “Concentration (nM), Time 60 min” value [2] was 74.6949 nM and 76.5031 nM and 55.8443 nM, the “Concentration (nM), Time 120 min” value [2] was 22.6965 nM and 21.4336 nM and 13.3509 nM and the “Linear Regression Results, Best-Fit Values, Slope” value [2] was -0.01747. For the same molecule, the hepatocyte CLint at 1 μM [3, 11] was 26 µL/min/1e6 cells, the hepatocyte CLint at 1 μM ([3]; hepatocytes, hepatocyte clearance, Conc 1000 nM, not background adjusted, read-out: Unadj Clint) was 34.9 µL/min/1e6 cells and the hepatocyte CLint at 1 μM [3, 12] was 26 µL/min/1e6 cells. The hepatocyte CLint at 1 μM [3, 13] was 34.9 µL/min/1e6 cells, the hepatocyte CLint at 1 μM [3, 14] was 34.9 µL/min/1e6 cells and the half-life at 1 μM [3, 15] was 0.661 h. For the same molecule, the hepatocyte CLint at 1 μM ([3]; s9, Bayesian analysis median, 1 μM assay concentration (Table S9), read-out: Clint.1.Med) was 88.7 µL/min/1e6 cells, the fraction unbound [4, 16] was 0.2 and the fraction unbound [4, 17] was 0.228. The fraction unbound [4, 18] was 0.178, the fraction unbound [4, 19] was 0.191 and the fraction unbound [4, 20] was 0.199. The half-life at 1 μM [5, 21] was 1.58 h, the half-life at 1 μM [5, 22] was 2.59 h and the Hep_Stab_Fail [5] was 0. For the same molecule, the “HT BkgdCl, Slope” value [5, 23] was -0.007311, the “No Cells BkgdCl, Slope” value ([5]; no cells control) was -0.004457 and the “Negative Controls, No cells (NC), concentration at 0 min” value ([5]; Rep 1-3) was 364.995 nM and 386.302 nM and 296.545 nM. The “Negative Controls, No cells (NC), concentration at 240 min” value ([5]; Rep 1-3) was 132.756 nM and 122.614 nM and 103.779 nM, the PPB_Stab_Fail [6] was 0 and the “Mean Stability (T5hr/T1hr)” value [6] was 0.975. The Fstable.Med [6] was 0.999, the “Stability (T5hr/ T1hr), Run-specific Avg” value [6] was 0.945 and the fup [7] was 0.1985. For the same molecule, the Fup.Med [7] was 0.192, the Fup.point [7] was 0.199 and the LOEC [8, 24] was 7.00 µM. For the same molecule, the LOEC [8, 25] was 7 µM.
For `NC(=O)C(F)(F)C(F)(F)C(F)(F)C(F)(F)C(N)=O` [Octafluoroadipamide], the Css [1, 9] was 0.10 mg/L and 0.34 uM, the Clhep [1] was 23.099 L/h and the AED [1] was 5.8401 mg/kg/day. It also gave a Fub [1] of 1, a Css [1, 10] of 0.34 µM and a CLint [1] of 517902 µL/min. The “Concentration (nM), Time 0 min” value [2] was 263.339 nM and 217.701 nM and 209.817 nM, the “Concentration (nM), Time 15 min” value [2] was 291.912 nM and 225.036 nM and 414.445 nM and the “Concentration (nM), Time 30 min” value [2] was 391.931 nM and 314.083 nM and 336.529 nM. The “Concentration (nM), Time 60 min” value [2] was 437.175 nM and 457.948 nM and 302.199 nM, the “Concentration (nM), Time 120 min” value [2] was 293.394 nM and 338.799 nM and 278.045 nM and the “Linear Regression Results, Best-Fit Values, Slope” value [2] was -0.002646. For the same molecule, the hepatocyte CLint at 1 μM [3, 11] was 2.95 µL/min/1e6 cells, the hepatocyte CLint at 1 μM [3, 12] was 2.95 µL/min/1e6 cells and the hepatocyte CLint at 1 μM [3, 13] was 5.29 µL/min/1e6 cells. For the same molecule, the hepatocyte CLint at 1 μM [3, 14] was 5.29 µL/min/1e6 cells, the half-life at 1 μM [3, 15] was 4.37 h and the fraction unbound [4, 16] was 0.67. The fraction unbound [4, 17] was 0.704, the fraction unbound [4, 18] was 0.633 and the fraction unbound [4, 19] was 0.732. The fraction unbound ([4]; Mean Fu (fraction unbound), mean over all UC runs and replicates, human plasma) was 0.82, the fraction unbound [4, 20] was 0.82 and the half-life at 1 μM [5, 21] was 7.63 h. The half-life at 1 μM [5, 22] was 9.88 h, the Hep_Stab_Fail [5] was 0 and the “HT BkgdCl, Slope” value [5, 23] was -0.001514. For the same molecule, the “Negative Controls, Heat Treated (HT), concentration at 0 min” value [5, 26] was 209.171 nM and 207.599 nM and 206.567 nM, the “Negative Controls, Heat Treated (HT), concentration at 240 min” value [5, 26] was 153.885 nM and 136.838 nM and 143.186 nM and the “No Cells BkgdCl, Slope” value ([5]; no cells control) was -0.00117. For the same molecule, the “Negative Controls, No cells (NC), concentration at 0 min” value ([5]; Rep 1-3) was 214.709 nM and 240.687 nM and 228.618 nM, the “Negative Controls, No cells (NC), concentration at 240 min” value ([5]; Rep 1-3) was 175.164 nM and 151.709 nM and 191.604 nM and the PPB_Stab_Fail [6] was 0. For the same molecule, the “Mean Stability (T5hr/T1hr)” value [6] was 0.977, the Fstable.Med [6] was 0.546 and the “Stability (T5hr/ T1hr), Run-specific Avg” value [6] was 0.982. For the same molecule, the fup [7] was 0.8201, the Fup.Med [7] was 0.864 and the Fup.point [7] was 0.834. For the same molecule, the LOEC [8, 24] was 2.00 µM and the LOEC [8, 25] was 2 µM.
